# Values of other authors, collected in US20080234335A1, “Cyclohexene Compounds” (priority 2003, published 2008).
# How the values were obtained:
# [1] = molecular target: T1, EP1 receptor (Rattus norvegicus, UniProt P70597); parameters: host or cells: live rodent (in vivo); settings: rodent model of post-operative pain
# T1 sequence (P70597 1-405): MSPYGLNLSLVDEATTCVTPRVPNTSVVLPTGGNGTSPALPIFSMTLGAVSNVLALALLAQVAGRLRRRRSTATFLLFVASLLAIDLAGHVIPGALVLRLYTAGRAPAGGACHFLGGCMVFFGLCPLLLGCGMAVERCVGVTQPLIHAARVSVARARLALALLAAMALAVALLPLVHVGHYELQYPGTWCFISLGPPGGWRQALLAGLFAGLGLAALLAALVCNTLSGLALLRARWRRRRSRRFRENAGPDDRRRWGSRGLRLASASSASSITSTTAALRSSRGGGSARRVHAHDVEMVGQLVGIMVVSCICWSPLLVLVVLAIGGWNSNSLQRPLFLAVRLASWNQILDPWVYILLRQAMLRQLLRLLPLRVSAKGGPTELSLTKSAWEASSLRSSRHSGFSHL
# [2] = molecular target: T1, EP1 receptor; parameters: host or cells: live rat (in vivo); settings: rat model of chronic constriction injury
structure (smiles),measurement,setting,value
Cc1cc(Cl)ccc1S(=O)(=O)NC[C@H]1C2CCC(CC2)[C@@H]1/C=C\CCCC(=O)O [ONO-8711],effect on mechanical hyperalgesia,[1],inhibits mechanical hyperalgesia
same,effect on hyperalgesia and allodynia,[2],reduces hyperalgesia and allodynia
